Source: patent publication US20090285791A1, “Regenerating and enhancing development of muscle tissue” (Sbarro Health Research Organization, Inc., priority 2008, published 2009)

Legend:
C2C12 cells = assay: C2C12 myoblast differentiation in the presence of kinase inhibitor DRB; format: cell-based, mouse; conditions: C2C12 induced to differentiate
Description: C2C12 cells were grown in DMEM supplemented with 20% FBS (GM) or with 2% HS (DM).
Immunoprecipitations were performed with anti-MyoD antibody (Santa Cruz, Calif.) followed by the addition of protein A-sepharose. Beads were extensively washed and loading buffer without β-mercaptoethanol was added at 4° C. to work in non-denaturing conditions. Samples were resolved in PAA-Gels and transferred to a Hybond-ECL nitrocellulose (Amersham, IL). The blots were blocked with TBST containing 5% non-fat dry milk. Antibodies specific for cdk9, myogenin, MHC, RNAPolII, P-Serine2-CTD, Desmin and tubulin were used as described in Simone et al., 2002; Giacinti et al., 2006. Anti-rabbit and anti-mouse peroxidase conjugated and ECL detection system (Amersham, IL) were used for detection.
Since cdk9-55 activity, as well as cdk9-42 activity (Shore et al., Gene 307, 175-182, 2003; Liu and Herman, J. Cell. Physiol. 203, 251-260, 2005), could be inhibited by pharmacological blockade, C2C12 cells were induced to differentiate with the kinase specific inhibitor DRB.

cdk9-55 = cdk9-55 (Homo sapiens, UniProt P50750); conditions: Shore et al. 2003; Liu and Herman 2005; cited from earlier work
Sequence of cdk9-55 (P50750 1-489 isoform P50750-2): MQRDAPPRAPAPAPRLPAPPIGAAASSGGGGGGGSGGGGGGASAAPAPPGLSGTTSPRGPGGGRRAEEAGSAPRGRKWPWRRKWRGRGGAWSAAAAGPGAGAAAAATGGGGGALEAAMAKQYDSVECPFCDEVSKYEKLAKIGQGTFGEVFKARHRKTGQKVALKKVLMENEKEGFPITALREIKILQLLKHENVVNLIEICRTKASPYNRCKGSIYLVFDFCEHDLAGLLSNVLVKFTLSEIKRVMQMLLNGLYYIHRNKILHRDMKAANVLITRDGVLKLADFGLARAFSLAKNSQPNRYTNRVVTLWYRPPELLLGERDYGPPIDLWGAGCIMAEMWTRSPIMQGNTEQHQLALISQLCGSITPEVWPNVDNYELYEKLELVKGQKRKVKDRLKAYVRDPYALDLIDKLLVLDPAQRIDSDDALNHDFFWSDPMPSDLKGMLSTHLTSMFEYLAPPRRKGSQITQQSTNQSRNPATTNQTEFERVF
Sequence of cdk9-55 (O60563 whole entry partner): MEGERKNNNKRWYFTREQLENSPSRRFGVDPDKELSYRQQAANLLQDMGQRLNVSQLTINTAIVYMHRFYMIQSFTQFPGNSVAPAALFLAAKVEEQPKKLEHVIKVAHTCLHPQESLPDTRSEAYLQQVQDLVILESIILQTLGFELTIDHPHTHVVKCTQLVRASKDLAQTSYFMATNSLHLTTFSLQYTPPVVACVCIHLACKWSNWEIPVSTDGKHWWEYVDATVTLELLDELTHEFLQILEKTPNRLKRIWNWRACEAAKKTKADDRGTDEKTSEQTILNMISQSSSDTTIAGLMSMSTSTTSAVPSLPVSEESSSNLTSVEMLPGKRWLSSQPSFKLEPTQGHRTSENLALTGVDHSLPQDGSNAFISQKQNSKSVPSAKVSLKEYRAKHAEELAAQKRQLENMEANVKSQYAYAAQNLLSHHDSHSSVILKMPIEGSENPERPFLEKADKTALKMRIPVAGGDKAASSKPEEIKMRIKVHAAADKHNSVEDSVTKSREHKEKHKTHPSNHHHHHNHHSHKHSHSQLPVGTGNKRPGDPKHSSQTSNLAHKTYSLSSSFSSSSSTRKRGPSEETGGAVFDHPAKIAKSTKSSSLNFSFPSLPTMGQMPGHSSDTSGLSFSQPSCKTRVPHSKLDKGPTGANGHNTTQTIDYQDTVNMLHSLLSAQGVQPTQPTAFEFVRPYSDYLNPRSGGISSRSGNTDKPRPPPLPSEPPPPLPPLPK

OC[C@H]1O[C@@H](n2cnc3cc(Cl)c(Cl)cc32)[C@H](O)[C@@H]1O [DRB, 5,6-dichloro-1-β-d-ribofuranosylbenzimidazole]
multinucleated myotubes (C2C12 cells; DRB 100 μM): absence of multinucleated myotubes | terminal differentiation (C2C12 cells; DRB 100 μM (FIG. 1D, 1E)): failed to undergo terminal differentiation | MHC levels (C2C12 cells; DRB 100 μM, immunoblot): low MHC levels | cdk9-55 kinase activity (cdk9-55): specifically inhibited
